According to PubChem BioAssay AID248 (DTP/NCI, 2004):
Toxic doses and inconclusive results are not listed. No stated cut-off is given here; in the data, active means T/C of 150% or more; inactive means T/C below 125%.

Tested on: L1210 leukemia ip in BDF1 mice, survival T/C
Assay: NCI In Vivo Anticancer Drug Screen. Data for tumor model L1210 Leukemia (intraperitoneal) in B6D2F1 (BDF1) mice
Conditions: endpoint: mean survival time, higher = longer survival
How it was run: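 Each compound was tested against a transplantable tumor grown in mice. The endpoint was survival, with treated animals benchmarked against vehicle controls as a simple ratio.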

[1] = dose: 100.0 mg/kg/injection, schedule: Q01DX009 (ip), vehicle: Klucel (hydroxypropylcellulose) (HPC)
[2] = dose: 200.0 mg/kg/injection, schedule: Q01DX009 (ip), vehicle: Klucel (hydroxypropylcellulose) (HPC)
[3] = dose: 400.0 mg/kg/injection, schedule: Q01DX009 (ip), vehicle: Klucel (hydroxypropylcellulose) (HPC)
[4] = dose: 100.0 mg/kg/injection, schedule: Q04DX003 (ip), vehicle: saline
[5] = dose: 200.0 mg/kg/injection, schedule: Q04DX003 (ip), vehicle: saline
[6] = dose: 400.0 mg/kg/injection, schedule: Q04DX003 (ip), vehicle: saline
[7] = dose: 6.25 mg/kg/injection, schedule: Q01DX009 (ip), vehicle: saline
[8] = dose: 100.0 mg/kg/injection, schedule: Q04DX003 (ip), vehicle: Klucel (hydroxypropylcellulose) (HPC)
[9] = dose: 200.0 mg/kg/injection, schedule: Q04DX003 (ip), vehicle: Klucel (hydroxypropylcellulose) (HPC)
[10] = dose: 400.0 mg/kg/injection, schedule: Q04DX003 (ip), vehicle: Klucel (hydroxypropylcellulose) (HPC)

Measured: T/C

C/C=C/C=N/NC(=O)c1ccccc1O
inactive: [1] 102 % of control | [2] 105 % of control | [3] 94 % of control

Cc1c(C)c(O)c2c(c1C)C(C)C(=O)OC2=O (stereo not given)
inactive: dose: 5.0 mg/kg/injection, schedule: Q01DX001 (ip), vehicle: saline 104 % of control | dose: 10.0 mg/kg/injection, schedule: Q01DX001 (ip), vehicle: saline 100 % of control | dose: 20.0 mg/kg/injection, schedule: Q01DX001 (ip), vehicle: saline 92 % of control | dose: 40.0 mg/kg/injection, schedule: Q01DX001 (ip), vehicle: saline 97 % of control

COC(=O)c1ccccc1N=NNc1ccc2c(=O)c3ccccc3[nH]c2c1
inactive: [4] 95 % of control | [5] 86 % of control | [6] 86 % of control

CS(=O)(=O)Oc1cccc(C(F)(F)F)c1
inactive: dose: 100.0 mg/kg/injection, schedule: Q01DX001 (ip), vehicle: carboxymethylcellulose (CMC) 107 % of control | dose: 200.0 mg/kg/injection, schedule: Q01DX001 (ip), vehicle: carboxymethylcellulose (CMC) 95 % of control | dose: 400.0 mg/kg/injection, schedule: Q01DX001 (ip), vehicle: carboxymethylcellulose (CMC) 98 % of control

CC(=O)Nc1cc([N+](=O)[O-])c(C)c([N+](=O)[O-])c1
inactive: dose: 100.0 mg/kg/injection, schedule: Q04DX003 (ip), vehicle: saline with Tween-80 104 % of control | dose: 200.0 mg/kg/injection, schedule: Q04DX003 (ip), vehicle: saline with Tween-80 97 % of control | dose: 400.0 mg/kg/injection, schedule: Q04DX003 (ip), vehicle: saline with Tween-80 97 % of control

CS(C)=O.CS(C)=O.CS(C)=O.[Cl][Rh]([Cl])[Cl]
inactive: [7] 106 % of control | dose: 12.5 mg/kg/injection, schedule: Q01DX009 (ip), vehicle: saline 98 % of control | dose: 15.0 mg/kg/injection, schedule: Q01DX009 (ip), vehicle: saline 107 % of control | dose: 40.0 mg/kg/injection, schedule: Q01DX009 (ip), vehicle: saline 104 % of control | [4] 96 % of control | [5] 89 % of control

Oc1ccc2ccccc2c1/C=N/N=C/c1c(O)ccc2ccccc12
inactive: [8] 96 % of control | [9] 91 % of control | dose: 300.0 mg/kg/injection, schedule: Q01DX009 (ip), vehicle: Klucel (hydroxypropylcellulose) (HPC) 98 % of control | [10] 88 % of control

C1=CCC2OC2C1 (stereo not given)
inactive: dose: 100.0 mg/kg/injection, schedule: Q01DX001 (ip), vehicle: acetone 103 % of control | [1] 105 % of control | dose: 200.0 mg/kg/injection, schedule: Q01DX001 (ip), vehicle: acetone 95 % of control | [2] 103 % of control | dose: 400.0 mg/kg/injection, schedule: Q01DX001 (ip), vehicle: acetone 94 % of control

COc1cccc(CCNC(=O)CC#N)c1OC
inactive: dose: 100.0 mg/kg/injection, schedule: Q01DX009 (ip), vehicle: saline 90 % of control | [8] 100 % of control | dose: 200.0 mg/kg/injection, schedule: Q01DX009 (ip), vehicle: saline 95 % of control | [9] 102 % of control | [10] 97 % of control

Cc1ccc2c(ccc3ccc4ccccc4c32)c1
inactive: [8] 90 % of control | [9] 89 % of control | [10] 93 % of control

O=C(Nc1cccc(F)c1)Nc1ccccc1Cl
inactive: [1] 105 % of control | [2] 97 % of control | [3] 95 % of control

CC(C)(C)C1=CC(=O)C(N2C3C4CCC(C4)C32)=C(N2C3C4CCC(C4)C32)C1=O (stereo not given)
inactive: dose: 100.0 mg/kg/injection, schedule: Q01DX001 (ip), vehicle: Klucel (hydroxypropylcellulose) (HPC) 96 % of control | dose: 200.0 mg/kg/injection, schedule: Q01DX001 (ip), vehicle: Klucel (hydroxypropylcellulose) (HPC) 94 % of control | dose: 400.0 mg/kg/injection, schedule: Q01DX001 (ip), vehicle: Klucel (hydroxypropylcellulose) (HPC) 87 % of control

CC(C)CC(=O)Nc1ccccc1
inactive: [8] 105 % of control | dose: 100.0 mg/kg/injection, schedule: Q04DX003 (ip), vehicle: other 98 % of control | [9] 101 % of control | dose: 200.0 mg/kg/injection, schedule: Q04DX003 (ip), vehicle: other 98 % of control | [10] 89 % of control | dose: 400.0 mg/kg/injection, schedule: Q04DX003 (ip), vehicle: other 89 % of control

CC(C)(C)OC(=O)NNC(=O)c1ccc([N+](=O)[O-])cc1
inactive: dose: 4.12 mg/kg/injection, schedule: Q01DX009 (ip), vehicle: Klucel (hydroxypropylcellulose) (HPC) 118 % of control | dose: 4.12 mg/kg/injection, schedule: Q01DX009 (ip), vehicle: saline 92 % of control | dose: 6.25 mg/kg/injection, schedule: Q01DX009 (ip), vehicle: Klucel (hydroxypropylcellulose) (HPC) 124 % of control | [7] 96 % of control | dose: 9.37 mg/kg/injection, schedule: Q01DX009 (ip), vehicle: Klucel (hydroxypropylcellulose) (HPC) 100 % of control | dose: 9.37 mg/kg/injection, schedule: Q01DX009 (ip), vehicle: saline 94 % of control | dose: 35.0 mg/kg/injection, schedule: Q01DX009 (ip), vehicle: saline 121 % of control | dose: 50.0 mg/kg/injection, schedule: Q04DX003 (ip), vehicle: Klucel (hydroxypropylcellulose) (HPC) 96 % of control | dose: 55.0 mg/kg/injection, schedule: Q01DX009 (ip), vehicle: saline 102 % of control | dose: 80.0 mg/kg/injection, schedule: Q01DX009 (ip), vehicle: saline 105 % of control | dose: 100.0 mg/kg/injection, schedule: Q01DX001 (ip), vehicle: other 102 % of control | [8] 93 % of control | dose: 120.0 mg/kg/injection, schedule: Q01DX009 (ip), vehicle: Klucel (hydroxypropylcellulose) (HPC) 92 % of control | dose: 180.0 mg/kg/injection, schedule: Q01DX009 (ip), vehicle: Klucel (hydroxypropylcellulose) (HPC) 97 % of control | dose: 200.0 mg/kg/injection, schedule: Q01DX001 (ip), vehicle: other 95 % of control | [9] 91 % of control

Cc1cc(-c2cc(C)c(O)c(C(C)(C)C)c2)cc(C(C)(C)C)c1O
inactive: dose: 25.0 mg/kg/injection, schedule: Q04DX002 (ip), vehicle: gum acacia 95 % of control | dose: 50.0 mg/kg/injection, schedule: Q04DX002 (ip), vehicle: gum acacia 95 % of control | dose: 100.0 mg/kg/injection, schedule: Q04DX002 (ip), vehicle: gum acacia 91 % of control

Cc1ccc(S(=O)(=O)c2ccccc2C)s1
inactive: dose: 100.0 mg/kg/injection, schedule: Q01DX001 (ip), vehicle: saline 97 % of control | dose: 100.0 mg/kg/injection, schedule: Q04DX003 (ip), vehicle: acetone 94 % of control | dose: 200.0 mg/kg/injection, schedule: Q01DX001 (ip), vehicle: saline 98 % of control | dose: 200.0 mg/kg/injection, schedule: Q04DX003 (ip), vehicle: acetone 98 % of control | dose: 400.0 mg/kg/injection, schedule: Q01DX001 (ip), vehicle: saline 93 % of control | dose: 400.0 mg/kg/injection, schedule: Q04DX003 (ip), vehicle: acetone 94 % of control

O=C(NC(=S)Nc1ccc(S(=O)(=O)c2ccc(NC(=S)NC(=O)c3ccccc3)cc2)cc1)c1ccccc1
inactive: [1] 102 % of control | dose: 100.0 mg/kg/injection, schedule: Q04DX002 (ip), vehicle: Klucel (hydroxypropylcellulose) (HPC) 94 % of control | [2] 94 % of control | dose: 200.0 mg/kg/injection, schedule: Q04DX002 (ip), vehicle: Klucel (hydroxypropylcellulose) (HPC) 94 % of control | [3] 91 % of control | dose: 400.0 mg/kg/injection, schedule: Q04DX002 (ip), vehicle: Klucel (hydroxypropylcellulose) (HPC) 102 % of control

C(C#Cc1ccccc1)#Cc1ccccc1
inactive: [4] 94 % of control | [5] 100 % of control | [6] 97 % of control
